Test results published in publication PMC4362760, “JAK2^V617F Drives Mcl-1 Expression and Sensitizes Hematologic Cell Lines to Dual Inhibition of JAK2 and Bcl-xL” (PLoS ONE, 2015).
pKi: −log10 of the molar value.

Assays:
SET-2 cells = test: alamarBlue cell viability, JAKi-I/ABT-263 combination, 72 hr, SET-2; assay type: cell-based; conditions: SET-2, 72h, Jaki-1 0 uM
Procedure: (§1) Transfection of siRNAs was performed using Lipofectamine RNAiMAX according to the manufacturer’s recommendations. […] Caspase-3 activity was determined using the Caspase-GLO 3/7 Assay (Promega) in parallel with the CellTiter-GLO viability assay (Promega). The data are expressed as Caspase-3/7 activity divided by cell viability.
(§2) Caspase-3 activity was determined at each time point. Data are from duplicate samples and are representative of at least three independent experiments. (D-G) Cells were treated in combination as indicated, and cell viability was determined after 72 hr. Data are means of duplicate determinations, and are representative of at least three independent experiments. […] Drugs were added simultaneously, and cell viability was determined after 72 hr. The data were then analyzed using the drug-drug interaction model of Bliss additivity^16 to define dose combinations that were synergistic (values >15; red), antagonistic (values <-15; blue), or without effect (-15<values<15; gray). (I) Model of JAK2/Bcl-2 family inhibitor synergy. JAK2^V617F constitutively phosphorylates and activates STAT3/5, thus enforcing expression of the transcriptional target, Mcl-1. Mcl-1 collaborates with Bcl-XL to oppose apoptosis and support viability.
(§3) Supplementary file pone.0114363.s006.xls: S6 Dataset Cells were treated in combination as indicated, and cell viability was determined using alamarBlue after 72 hr. Data are means of duplicate determinations, and are representative of at least three independent experiments. (XLS) Click here for additional data file.

HEL cells = test: alamarBlue cell viability, JAKi-I/ABT-263 combination, 72 hr, HEL; assay type: cell-based; conditions: Jaki-1 0 uM
Procedure: as §1, §2, §3

[1] = tested on: JAK2 V617F-positive and -negative leukemia cell lines; test: Drug-drug interaction across leukemia lines: ABT-263 dose shift and Bliss additivity matrix, 72-hr cell viability; assay type: cell-based; conditions: JAKi-I and ABT-263 0.03-1 μM matrix, 72-hr viability, cell lines carrying JAK2 V617F
Procedure: as §1, §2

ACVR1 = molecular target: T1, ACVR1 (Homo sapiens, UniProt Q04771); test: TR-FRET Kinome ACVR1; assay type: binding; conditions: ACVR1 Invitrogen .05(Subs Conc)
T1 construct: purchased Invitrogen
T1 sequence (Q04771 21-509): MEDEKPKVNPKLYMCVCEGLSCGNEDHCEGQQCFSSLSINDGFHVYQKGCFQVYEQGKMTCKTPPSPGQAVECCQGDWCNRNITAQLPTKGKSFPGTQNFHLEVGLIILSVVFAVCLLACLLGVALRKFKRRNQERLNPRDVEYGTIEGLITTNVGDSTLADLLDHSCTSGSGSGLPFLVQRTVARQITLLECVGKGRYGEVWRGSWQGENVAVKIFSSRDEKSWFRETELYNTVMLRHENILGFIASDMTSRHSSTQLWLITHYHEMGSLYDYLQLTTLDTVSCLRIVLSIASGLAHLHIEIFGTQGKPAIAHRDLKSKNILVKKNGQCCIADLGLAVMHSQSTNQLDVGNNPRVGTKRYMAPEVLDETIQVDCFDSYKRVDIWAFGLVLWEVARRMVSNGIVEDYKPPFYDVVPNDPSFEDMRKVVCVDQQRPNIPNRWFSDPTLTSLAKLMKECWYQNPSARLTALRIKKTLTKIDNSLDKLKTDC
Text: (§4) (XLS) Click here for additional data file.

Akt1 = Akt1 (Homo sapiens, UniProt P31749); test: TR-FRET Kinome Akt1; assay type: binding; conditions: Akt1 Invitrogen .2(Subs Conc)
Akt1, sequence (P31749 whole entry): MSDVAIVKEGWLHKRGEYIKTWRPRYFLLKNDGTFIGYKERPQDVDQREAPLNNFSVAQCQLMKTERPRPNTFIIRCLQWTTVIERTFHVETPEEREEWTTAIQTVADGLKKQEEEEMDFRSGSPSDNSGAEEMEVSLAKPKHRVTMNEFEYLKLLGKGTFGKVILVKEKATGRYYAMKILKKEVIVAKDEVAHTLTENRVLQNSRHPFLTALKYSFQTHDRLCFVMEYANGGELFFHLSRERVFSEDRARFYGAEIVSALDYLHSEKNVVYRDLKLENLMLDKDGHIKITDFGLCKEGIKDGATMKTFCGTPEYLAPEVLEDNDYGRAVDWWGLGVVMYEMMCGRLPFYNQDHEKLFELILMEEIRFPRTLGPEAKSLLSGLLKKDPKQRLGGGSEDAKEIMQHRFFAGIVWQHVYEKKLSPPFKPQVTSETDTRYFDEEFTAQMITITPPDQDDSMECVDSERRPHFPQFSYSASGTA
Text: as §4

CDK11 = test: TR-FRET Kinome CDK11; assay type: binding, human; conditions: CDK11 Abbott .025(Subs Conc)
Text: as §4

PKCzeta = PKCzeta (Homo sapiens, UniProt Q05513); test: TR-FRET Kinome PKCzeta; assay type: binding; conditions: PKCzeta Millipore IVGN Tracer .05(Subs Conc)
PKCzeta, sequence (Q05513 whole entry): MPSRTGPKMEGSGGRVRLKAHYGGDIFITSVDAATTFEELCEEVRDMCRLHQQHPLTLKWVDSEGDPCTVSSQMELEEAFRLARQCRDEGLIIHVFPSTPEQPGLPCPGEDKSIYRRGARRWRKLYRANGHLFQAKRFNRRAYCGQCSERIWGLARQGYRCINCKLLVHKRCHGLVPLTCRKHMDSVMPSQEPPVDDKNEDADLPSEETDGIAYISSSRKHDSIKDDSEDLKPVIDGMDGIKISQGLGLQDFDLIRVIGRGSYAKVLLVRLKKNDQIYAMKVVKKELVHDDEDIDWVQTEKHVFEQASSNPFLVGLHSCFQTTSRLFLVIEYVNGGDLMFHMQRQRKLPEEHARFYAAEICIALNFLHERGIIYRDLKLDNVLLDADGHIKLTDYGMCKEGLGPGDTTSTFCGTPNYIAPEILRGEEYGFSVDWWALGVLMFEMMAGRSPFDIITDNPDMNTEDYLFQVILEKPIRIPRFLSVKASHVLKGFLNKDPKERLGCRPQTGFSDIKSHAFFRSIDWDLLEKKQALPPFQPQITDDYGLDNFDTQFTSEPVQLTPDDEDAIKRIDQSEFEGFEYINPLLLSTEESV
Text: as §4

Plk3 = Plk3 (Homo sapiens, UniProt Q9H4B4); test: TR-FRET Kinome Plk3; assay type: binding; conditions: Plk3 Invitrogen .05(Subs Conc)
Plk3, sequence (Q9H4B4 whole entry): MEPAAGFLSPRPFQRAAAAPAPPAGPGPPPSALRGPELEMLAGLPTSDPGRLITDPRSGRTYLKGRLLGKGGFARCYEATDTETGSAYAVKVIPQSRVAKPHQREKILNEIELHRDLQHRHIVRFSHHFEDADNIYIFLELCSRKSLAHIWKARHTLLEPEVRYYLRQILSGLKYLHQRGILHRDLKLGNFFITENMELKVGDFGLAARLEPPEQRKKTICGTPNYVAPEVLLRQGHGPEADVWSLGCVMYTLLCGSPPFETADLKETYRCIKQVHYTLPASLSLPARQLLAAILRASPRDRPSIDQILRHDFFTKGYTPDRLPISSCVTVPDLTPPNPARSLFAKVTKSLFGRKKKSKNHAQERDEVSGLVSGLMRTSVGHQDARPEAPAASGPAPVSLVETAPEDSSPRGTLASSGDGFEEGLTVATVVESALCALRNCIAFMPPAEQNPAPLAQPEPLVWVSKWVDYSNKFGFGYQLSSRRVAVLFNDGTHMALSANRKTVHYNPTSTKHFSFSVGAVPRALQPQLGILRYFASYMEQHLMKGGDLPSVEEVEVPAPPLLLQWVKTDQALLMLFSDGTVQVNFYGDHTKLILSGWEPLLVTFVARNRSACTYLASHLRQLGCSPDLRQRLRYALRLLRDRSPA
Text: as §4

STK16 = STK16 (Homo sapiens, UniProt O75716); test: TR-FRET Kinome STK16; assay type: binding; conditions: STK16 Invitrogen IVGN Tracer .05(Subs Conc)
STK16, sequence (O75716 whole entry): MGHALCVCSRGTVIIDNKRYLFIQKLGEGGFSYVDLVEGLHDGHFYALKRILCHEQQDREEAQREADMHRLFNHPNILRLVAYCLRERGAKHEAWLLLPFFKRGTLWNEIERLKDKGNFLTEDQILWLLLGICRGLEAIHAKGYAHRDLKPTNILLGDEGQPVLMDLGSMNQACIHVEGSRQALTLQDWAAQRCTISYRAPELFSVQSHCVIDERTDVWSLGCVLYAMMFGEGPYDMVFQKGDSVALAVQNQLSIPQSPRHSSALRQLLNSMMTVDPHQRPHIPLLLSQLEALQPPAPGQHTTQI
Text: as §4

Mcl-1 mRNA = Mcl-1 mRNA abundance by qPCR in SET-2, UKE-1, HEL, MV4;11, K562 cells; assay type: cell-based; conditions: for MCL-1 % Control: treated vs non-treated (100.0); for MCL-1 Mean QTY: treated, normalised mRNA quantity by qPCR
[2] = tested on: STAT3 binding to the Mcl-1 promoter; test: ChIP of STAT3 binding to the Mcl-1 promoter (EZ-ChIP); assay type: cell-based; conditions: 1 μM, 6 hr; cell lines expressing JAK2 V617F, not in lines without this lesion

CC1(C)CCC(c2ccc(Cl)cc2)=C(CN2CCN(c3ccc(C(=O)NS(=O)(=O)c4ccc(N[C@H](CCN5CCOCC5)CSc5ccccc5)c(S(=O)(=O)C(F)(F)F)c4)cc3)CC2)C1 [ABT-263]
Viability (% Inhibiton) (SET-2 cells; ABT-263 0.003 uM): 0% | Viability (% Inhibiton) (SET-2 cells; ABT-263 0.01 uM): 3% | Viability (% Inhibiton) (SET-2 cells; ABT-263 0.03 uM): 4% | Viability (% Inhibiton) (SET-2 cells; ABT-263 0.1 uM): 28% | Viability (% Inhibiton) (SET-2 cells; ABT-263 0.3 uM): 63% | Viability (% Inhibiton) (SET-2 cells; ABT-263 1 uM): 95% | Viability (% Inhibiton) (HEL cells; ABT-263 0.003 uM): 0% | Viability (% Inhibiton) (HEL cells; ABT-263 0.01 uM): 0% | Viability (% Inhibiton) (HEL cells; ABT-263 0.03 uM): 1% | Viability (% Inhibiton) (HEL cells; ABT-263 0.1 uM): 14% | Viability (% Inhibiton) (HEL cells; ABT-263 0.3 uM): 55% | Viability (% Inhibiton) (HEL cells; ABT-263 1 uM): 95% | drug-drug interaction (Bliss additivity) [1]: Synergistic interactions

CC(C)(C)c1nc2c3cc[nH]c(=O)c3c3cc(F)ccc3c2[nH]1 [JAKi-I, JAK inhibitor I]
pKi (ACVR1): < 5.36 | pKi (Akt1): < 5.30 | pKi (CDK11): < 5.49 | pKi (PKCzeta): < 5.28 | pKi (Plk3): < 5.81 | pKi (STK16): < 5.27 | MCL-1 % Control (Mcl-1 mRNA; HEL cells): 59.2674% | MCL-1 Mean QTY (Mcl-1 mRNA; HEL cells): 25.0 | MCL-1 % Control (Mcl-1 mRNA; K562 cells): 89.9219% | MCL-1 Mean QTY (Mcl-1 mRNA; K562 cells): 50.9 | MCL-1 Mean QTY (Mcl-1 mRNA; MV411 cells): 30.6 | MCL-1 % Control (Mcl-1 mRNA; SET2 cells): 37.995% | MCL-1 Mean QTY (Mcl-1 mRNA; SET2 cells): 47.0 | Mcl-1 transcript level (Mcl-1 mRNA; following JAK inhibition, 6 hr): sharply declined | STAT3 binding to the MCL1 promoter [2]: disrupted
